Source: patent EP2520297A1, “Rubreserine and its derivates with antiparasitic activity” (Commissariat à l'Énergie Atomique et aux Énergies …, priority 2011, dated 2012)
Read-outs that look alike come from different tables or passages of the source.

Experiments:
[1] = target: T1, recombinant Arabidopsis thaliana GAT-ADCS (Arabidopsis thaliana, UniProt Q8LPN3); experiment: Determination of GAT-ADCS activities (glutamate or pABA production, fluorescence); type: biochemical
T1 construct: made in house
Method: Both proteins were expressed and purified as described in the publication of D. Camara et al., Archives of Biochemistry and Biophysics 505 (2011) 83-90.
GAT-ADCS activity can be determined by measuring the production of either glutamate or pABA. Standard assays contained 100 mM Tris/HCl (pH 8.0), 5 mM MgCl2, 5% V/V glycerol, 0 to 0.5 mM L-glutamine, 0.1 mM chorismate, 9 yg ml^-1 (90 nM) of the recombinant Arabidopsis thaliana GAT-ADCS and either 1 mM NAD and an excess of glutamate deshydrogenase (GDH) for glutamate determination, or an excess of Escherichia coli ADCL (20 µg ml^-1, 600 nM) for pABA determination. Reactions (final volume 80 µl) were run in the wells of a 96 well microplate (Greiner) and changes in fluorescence were continuously monitored with a microplate scanning spectrophotometer Safir 2 (Tecan). The glutamate production was followed by the fluorescence emission of NADH at 450 nm (excitation 340 nm). The pABA production was directly followed by the increase of the fluorescence emission at 340 nm (excitation 290 nm).
The equipment involved an automated screening station (Tecan Genesis 2000, Lyon, France), including a microplate reader. The platform is controlled by software for driving of serial devices and assays scheduling (Tecan Gemini 4.2 and FACTS 4.82 software). The library of compounds was purchased from The Prestwick Chemical Library®. This library contains 1200 molecules, 100% being marketed drugs, supplied at a 5 mM concentration in DMSO. The final concentration used in the enzymatic assay was 100 µM, and it was verified in separate control experiments that 2% DMSO had no effect on the activity. The enzymatic test used to determine GAT-ADCS activity in primary and secondary screenings was based on glutamate determination, as described above. After optimization of the assay, the Z' factor was comprised between 0.68 and 0.84.

ADCS = ADCS (Escherichia coli, UniProt P05041); conditions: purified enzyme; M. C. Kozlowski et al., J. Am. Chem. Soc. 117 (1995); cited from earlier work
ADCL = target: T2, ADCL (Escherichia coli, UniProt P28305); experiment: Control experiment on ADCL; type: biochemical; conditions: control experiments
T2 construct: made in house

[2] = system: Arabidopsis thaliana (ecotype Columbia) seedlings; experiment: Arabidopsis thaliana seedling growth on agar plates; type: in vivo
Method: Arabidopsis thaliana (ecotype Columbia) seedlings were grown on plates containing Murashige and Skoog medium, […], plus the various molecules to be tested. Seeds were first sterilized by soaking for 15 minutes in a solution containing 0,095% Tween® 20 and 0,57% sodium hypochlorite before to be laid on the agar medium. The plates were conserved in the dark at 4°C for 48 hours, and then transferred in a green house (20°C, 80% humidity, 150 µE.m^-2.s^-1, 12 hours light period). The number of seedlings at the two leaf stage (rosette stage) was counted after 2 weeks.

[3] = system: Toxoplasma gondii tachyzoites (RH-YFP2 strain); experiment: Toxoplasma gondii invasion assay in human fibroblasts; type: cell-based; conditions: for IC50: Toxoplasma gondii, Fibroblast, calculated from the curves of Figures 3A and 3B (invasion and intracellular replication)
Method: (§1) Toxoplasma gondii tachyzoites (RH-YFP2 strain) were propagated in human foreskin fibroblasts (HFFs). Human cells were grown in DMEM supplemented with 100 U/mL penicillin, […] streptomycin, 2 mM glutamine, and 10% FBS (Gibco). To obtain extracellular parasites, host cells were forced through a 26.5 gauge needle, and then the released parasites were purified by filtration through a 3 µm polycarbonate membrane before use.
For the invasion assay, RH-YFP2 parasites were incubated for 5 hours with the different drugs. Then 10^6 parasites/well were centrifuged for 30 seconds at 1300 rpm on HFF monolayers to synchronize invasion and wells were incubated for 15 minutes in a water bath at 37°C. Wells were washed three times with cold PBS to eliminate extracellular parasites and cells were fixed in 2.5% formaldehyde/PBS for 30 minutes and stored in PBS at 4°C until staining. To distinguish intracellular from extracellular parasites, cells were incubated with the primary antibody mAb Tg05-54 to detect the major Toxoplasma surface protein SAG1 (TgSAG1), then with Texas Red-conjugated goat anti-mouse secondary antibody (Molecular Probes). […] Nuclei were stained with Hoechst 33258 (Molecular Probes). To determine the number of intracellular parasites, 12 randomly selected fields were counted per well and per experiment with a Zeiss Axioplan 2 microscope equipped for epifluorescence and phase-contrast. Invasion was expressed as % of the number of intracellular parasites recorded in non-treated cells.

[4] = system: Toxoplasma gondii tachyzoites (RH-YFP2 strain); experiment: Toxoplasma gondii intracellular proliferation assay; type: cell-based
Method: as §1
For the proliferation assay, 10^5 parasites/well were centrifuged on HFF monolayers for 30 seconds at 1300 rpm and incubated for 15 minutes in a water bath at 37°C for invasion. Wells were then washed three times with PBS to eliminate extracellular parasites and drugs were added. After 24 hours at 37°C in a humidified atmosphere containing 5% CO2, cells were fixed as described above. The number of parasites from up to 200 individual vacuoles was counted for each drug concentration.

[5] = system: 3D7 strain of Plasmodium falciparum; experiment: Plasmodium falciparum SYBR Green 1-based fluorescence growth assay; type: cell-based; conditions: 3D7, 96 h
Method: The 3D7 strain of Plasmodium falciparum was maintained in O+ blood. A rubreserine 10 mM stock concentration was made up in 1 × PBS pH = 7.5. This stock solution was then diluted serially to obtain the growth curve. Growth inhibition was measured after 96 hours by using an in vitro SYBR Green 1-based fluorescence growth assay, as previously described (T. N. Bennett et al., Antimicrob. Agents Chemoter. (2004) 48 1807-1810; M. Smilkstein et al., Antimicrob. Agents Chemoter. (2004) […] 1803-1806).

[6] = system: confluent human fibroblast cells; experiment: Effect on confluent human fibroblast cells; type: cell-based; conditions: concentrations up to 50 µM
Method: Firstly, it was verified that rubreserine concentrations up to 50 µM had no effect on confluent human fibroblast cells. The effect of rubreserine on Toxoplasma gondii parasites was then studied in two situations: • i) in invasion of human fibroblasts, and • ii) in intracellular development of the parasites.

Toxoplasma gondii = conditions: read-out: IC50 generally reported in the literature; P. Meneceur, Antimicrob. Agents Chemother. 52 (2008); cited from earlier work

T1 sequence (Q8LPN3 46-919): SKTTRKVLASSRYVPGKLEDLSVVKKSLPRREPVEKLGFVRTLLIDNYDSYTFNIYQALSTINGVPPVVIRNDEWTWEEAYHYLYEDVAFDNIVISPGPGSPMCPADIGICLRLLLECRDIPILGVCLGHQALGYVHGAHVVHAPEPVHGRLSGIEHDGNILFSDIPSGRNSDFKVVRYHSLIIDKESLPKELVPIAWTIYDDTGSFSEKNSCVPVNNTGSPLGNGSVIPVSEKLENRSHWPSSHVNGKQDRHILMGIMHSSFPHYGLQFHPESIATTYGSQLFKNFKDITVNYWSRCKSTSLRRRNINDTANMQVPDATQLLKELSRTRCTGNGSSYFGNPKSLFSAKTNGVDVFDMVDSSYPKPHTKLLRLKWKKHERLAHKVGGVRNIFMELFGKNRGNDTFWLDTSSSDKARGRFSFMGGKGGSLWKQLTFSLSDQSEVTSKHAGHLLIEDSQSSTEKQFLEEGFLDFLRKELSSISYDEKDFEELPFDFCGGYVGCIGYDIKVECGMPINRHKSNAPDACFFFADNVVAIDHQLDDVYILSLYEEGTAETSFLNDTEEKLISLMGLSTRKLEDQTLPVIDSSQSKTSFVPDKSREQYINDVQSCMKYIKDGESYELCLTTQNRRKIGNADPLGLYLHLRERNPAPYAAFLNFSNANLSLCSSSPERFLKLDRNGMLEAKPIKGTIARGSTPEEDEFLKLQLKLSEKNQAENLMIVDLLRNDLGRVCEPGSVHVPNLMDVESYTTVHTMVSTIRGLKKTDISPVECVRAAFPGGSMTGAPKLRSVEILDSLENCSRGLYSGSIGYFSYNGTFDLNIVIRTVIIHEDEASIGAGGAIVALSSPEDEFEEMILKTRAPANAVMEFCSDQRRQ
T2 sequence (P28305 whole entry): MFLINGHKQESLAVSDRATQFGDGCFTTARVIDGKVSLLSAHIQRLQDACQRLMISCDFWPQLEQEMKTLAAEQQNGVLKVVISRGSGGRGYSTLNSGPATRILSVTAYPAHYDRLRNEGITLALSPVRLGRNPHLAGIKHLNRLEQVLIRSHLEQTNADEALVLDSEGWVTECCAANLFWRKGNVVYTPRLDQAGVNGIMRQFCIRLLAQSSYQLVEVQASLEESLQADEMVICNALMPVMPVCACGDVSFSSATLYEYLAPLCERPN
Sequence of ADCS (P05041 whole entry): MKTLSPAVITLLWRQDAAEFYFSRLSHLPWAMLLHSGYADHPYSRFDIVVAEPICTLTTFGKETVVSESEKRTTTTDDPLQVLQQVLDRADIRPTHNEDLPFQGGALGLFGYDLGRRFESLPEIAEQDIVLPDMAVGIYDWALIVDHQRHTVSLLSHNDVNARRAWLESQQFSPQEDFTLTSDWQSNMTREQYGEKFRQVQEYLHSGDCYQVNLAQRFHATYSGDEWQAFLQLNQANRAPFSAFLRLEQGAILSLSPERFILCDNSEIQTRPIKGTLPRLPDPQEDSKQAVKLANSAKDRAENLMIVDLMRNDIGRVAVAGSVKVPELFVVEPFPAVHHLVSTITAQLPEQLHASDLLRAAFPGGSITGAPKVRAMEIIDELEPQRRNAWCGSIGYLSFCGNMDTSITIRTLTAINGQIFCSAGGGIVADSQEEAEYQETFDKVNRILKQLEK

## CN1CCC2(C)c3cc(O)ccc3N(C)C12 (single isomer, unassigned) [eseroline, reference compound]
[1]
  effect on the enzyme activity: no or little effect

## C=C(OC1C(O)=C(C(=O)O)C=CC1N)C(=O)O (stereo not shown) [2-hydroxy-4-amino-4-deoxy chorismate]
ADCS
  Ki: 38 µM

## CN1CCC2(C)C3=CC(=O)C(=O)C=C3N(C)C12 (stereo not shown) [rubreserine]
[1]; GAT activity, 10 and 20 µM
  period of incubation required to obtain maximal inhibition: 20 min
[1]; bifunctional GAT-ADCS, summary statement, read-out: apparent inhibitory constant (Ki)
  Ki: < 10 µM
[1]; decreased Vm for pABA production, increased Km for glutamine
  type of inhibition: mixed-type inhibition
[1]; incubation with dithiothreitol (DTT)
  inhibitory effect after incubation with a reducing agent: suppressed the inhibitory effect
[1]; pABA production, varying glutamine, 100 µM chorismate, 20 minutes incubation with rubreserine, estimated from the curves, read-out: Ki
  Ki: ~4 µM
[1]; pABA production, varying glutamine, 100 µM chorismate, 20 minutes incubation with rubreserine, estimated from the curves, read-out: αKi
  Ki: ~9 µM
ADCL
  effect on ADCL: no effect
[2]; 200 µM 5-FTHF together with rubreserine, lower extent than pABA
  growth inhibition with 5-formyl tetrahydrofolate: able to revert the inhibitory effect
[2]; agar plates supplemented with 200 µM pABA together with rubreserine
  growth inhibition with pABA: suppressed or largely reduced
[2]; agar plates, various concentrations (50 or 100 µM), two weeks
  growth of seedlings: dose-dependent growth inhibition
[3]; 20 µM, parasites incubated 5 hours with drug, 15 minutes contact with human cells
  number of intracellular parasites: reduced two times
[3]
  IC50: ~20 µM
[3]; invasion of human fibroblasts or intracellular replication
  efficiency compared with sulfanilamide and sulfadiazine: more efficient
[4]; 20 µM rubreserine with 100 µM pABA or 100 µM 5-FTHF
  inhibition in the presence of pABA or 5-FTHF: significantly reversed the inhibition
[4]; 24 hours after invasion, 200 vacuoles counted
  number of parasites in the parasitophorous vacuoles: decreased
[4]; rubreserine 20 µM with pyrimethamine 0.4 µM, compared to rubreserine alone
  inhibition in combination with pyrimethamine: increased
[5]
  IC50: ~1.2 µM
[6]
  effect on confluent human fibroblast cells: no effect

## Nc1ccc(S(=O)(=O)Nc2ncccn2)cc1 [sulfadiazine, reference compound]
[3]
  IC50: > 50 µM
Toxoplasma gondii
  IC50: > 30 µM
